Source: US20250345512A1, “COMBINATION SODIUM-GLUCOSE COTRANSPORTER INHIBITOR (SGLTI) INSULIN THERAPY FOR GLYCEMIC CONTROL IN TYPE 1 DIABETES” (University of Virginia Patent Foundation, priority 2022, published 2025)

Test system: participants with T1D
Assay: Randomized crossover clinical trial (NCT04201496): CGM glycemic outcomes with 5 mg daily empagliflozin adjunctive to AID (Control-IQ, CIQ) or PLGS (Basal-IQ, BIQ)
Format: in vivo, human
Description: FIG. 2 presents a study analysis relative to baseline, control IQ (CIQ) (e.g., AID), and basal IQ (BIQ) (e.g., PLGS) implementation, according to investigation that is demonstrable of one or more embodiments herein. Therein, an experimental arm (G1, G2) providing an initial daily dose of 5 mg empagliflozin (EMPA) is depicted against a control arm (G3, G4) without such dosing (NOEMPA). Relative characteristics of the analysis are provided below.
Study Design: A single-center, randomized, controlled, unblinded, crossover clinical trial (NCT04201496) compared four parallel groups, two groups in the experimental arm (EMPA) with 5 mg daily empagliflozin as adjunctive therapy to PLGS or AID, and two groups in the control arm (NOEMPA) with no drug and with a PLGS system (Basal-IQ, Tandem Diabetes Care) or AID system (Control-IQ, Tandem Diabetes Care). The groups within each arm differed from one another in the order of the randomly assigned crossover technological intervention, relative to PLGS being followed by AID or AID being followed by PLGS, respectively (FIG. 4). The study protocol was approved by the University of Virginia Institutional Review Board (IRB). An investigational device exemption (IDE), including an investigational new drug (IND) application for empagliflozin, was approved by the FDA. Safety aspects were overseen by an external data and safety monitoring board (DSMB). Participants: Major inclusion criteria were T1D treated with insulin for at least one year, use of continuous subcutaneous insulin infusion therapy for at least six months, age 18-65 yrs., no use of glucose lowering agents other than insulin, and Hb1Ac<9% (75 mmol/mol). Randomization: A (1:1:1:1) randomization assigned participants to either Group 1, AID-EMPA (4 weeks) followed by PLGS-EMPA (2 weeks), Group 2, PLGS-EMPA (2 weeks) followed by AID-EMPA (4 weeks), Group 3, AID-NOEMPA (4 weeks) followed by PLGS-NOEMPA (2 weeks), and Group 4, PLGS-NOEMPA (2 weeks) followed by AID-NOEMPA (4 weeks). Procedures: After confirmation of eligibility, participants underwent study equipment and medication training (experimental arm), or only study equipment training (control arm). Study equipment consisted of Dexcom G6® CGM (Dexcom Inc., San Diego, CA), Contour® Next blood glucose (Ascensia Diabetes Care, Basel, Switzerland) and Precision Xtra® blood ketone meters (Abbott, Alameda, CA) with their respective test strips; infusion sets, and the use of the t:slim X2™ insulin pump with Basal-IQ or Control-IQ technologies (Tandem Diabetes Care, San Diego, CA), according to randomization. […] Participants in the experimental arm were asked to record two days of baseline ketone values before initiating the use of the study drug. Thereafter, participants were directed to use the study CGM with EMPA for 1-2 weeks. A tolerance to the medication was assessed prior to the starting of the next study phase, including adherence to the protocol, ketone testing 2-4 times per day with monitored values not greater than 0.6 mmol/L on at least two successive occasions (the first testing upon waking in a fasted state), no adverse events relating to perineal infection or symptomatic postural hypotension, and no evidence of significant hypoglycemia <54 mg/dL, or any other listed adverse effects of the medication. Participants in the control arm were directed to use the study CGM for 1-2 weeks. Sample Size: The total sample size was projected to be 40 participants, assuming 1) 1:1:1:1 randomization; 2) 90% power and type 1 error a=0.01, further reinforcing the feasibility of hierarchical analyses. The projected recruitment sample was n=50, to accommodate up to 20% attrition rate without sacrificing statistical power. Analytical methods: For the primary analysis, TIR during the day in the 4-week AID period was compared between the two EMPA groups versus the two NOEMPA groups using a linear mixed-effects regression model while adjusting for pre-randomization HbAlc and age. […]

[1] = EMPA minus NOEMPA on same insulin system, adjusted for HbA1c
[2] = daytime (7:00-23:00), CIQ-EMPA vs. BIQ-NOEMPA, BIQ-EMPA vs. CIQ-NOEMPA
[3] = daytime (7:00-23:00), CIQ-EMPA vs. CIQ-NOEMPA, BIQ-EMPA vs. BIQ-NOEMPA
[4] = daytime (7:00-23:00), n = 16, mean ± SD
[5] = daytime (7:00-23:00), n = 16, median (IQR)

OC[C@H]1O[C@@H](c2ccc(Cl)c(Cc3ccc(O[C@H]4CCOC4)cc3)c2)[C@H](O)[C@@H](O)[C@@H]1O [BIQ-EMPA, empagliflozin]
24/7 HBGI - median (IQR) (24/7, n = 17): 3.3(1.8-4.7)
24/7 LBGI - median (IQR) (24/7, n = 17): 0.7(0.6-1)
24/7 glucose level <70 mg/dL (<3.9 mmol/L) - median % time (IQR) (24/7, n = 17): 1.7(0.9-2.7) %
24/7 Mean glucose level - (24/7, n = 17, mean ± SD): 141 ± 30 mg/dL
Difference (95% CI): 24/7 HBGI [1]: −3.7(−6.5 to −1)
Difference (95% CI): 24/7 LBGI [1]: 0.1(−0.3 to 0.6)
Difference (95% CI): 24/7 Mean glucose level [1]: −24.1(−42.2 to −6) mg/dL
Difference (95% CI): 24/7 glucose level <70 mg/dL % time [1]: 0.2(−1.7 to 2.1) percentage points
Difference (95% CI): Daytime CGM CV [1]: −4.0(−6.8 to −1.2) %
Difference (95% CI): Daytime CGM SD [1]: −13.2(−21.6 to −4.8) mg/dL
Difference (95% CI): daytime glucose % Time in range of 70 to 180 mg/dL (EMPA minus NOEMPA on same insulin system, adjusted for pre-randomization HbA1c): 16.5(7.3 to 26) ^ percentage points
Primary: daytime glucose % Time in range of 70 to 180 mg/dL (3.9-10.0 mmol/L) (daytime 7:00 to 23:00 h, n = 17, mean ± SD): 80 ± 14%
Difference (95% CI): % CGM time <50 mg/dL (<2.8 mmol/L) [2]: −0.3 percentage points
Difference (95% CI): % CGM time <60 mg/dL (<3.3 mmol/L) [2]: −0.2 percentage points
Difference (95% CI): % CGM time >180 mg/dL (>10.0 mmol/L) [2]: −9.5 percentage points
Difference (95% CI): % CGM time >250 mg/dL (>13.9 mmol/L) [2]: −2.2 percentage points
Difference (95% CI): % CGM time >300 mg/dL (>16.7 mmol/L) [2]: −0.4 percentage points
Difference (95% CI): CGM HBGI [2]: −1.9
Difference (95% CI): CGM LBGI [2]: 0.3
Difference (95% CI): CGM SD [2]: -7.1 mg/dL
Difference (95% CI): Mean CGM glucose [2]: -14.9 mg/dL
Difference (95% CI): % CGM time 70-140 mg/dL (<3.9-7.8 mmol/L) [3]: 17.6 percentage points
Difference (95% CI): % CGM time >180 mg/dL (>10.0 mmol/L) [3]: −16.7 percentage points
Difference (95% CI): % CGM time >250 mg/dL (>13.9 mmol/L) [3]: −7.6 percentage points
Difference (95% CI): % CGM time >300 mg/dL (>16.7 mmol/L) [3]: −2.7 percentage points
Difference (95% CI): CGM HBGI [3]: −4
Difference (95% CI): CGM LBGI [3]: −0.3
Difference (95% CI): CGM SD [3]: -13.2 mg/dL
Difference (95% CI): Mean CGM glucose [3]: -23.8 mg/dL
Difference (95% CI): % CGM time <70-180 mg/dL (3.9-10.0 mmol/L) (daytime (7:00-23:00), CIQ-EMPA vs. CIQ-NOEMPA, BIQ-EMPA vs. BIQ-NOEMPA, listed as PLGS-EMPA): 16 percentage points
% CGM time 70-140 mg/dL (3.9-7.8 mmol/L) [4]: 58.1 ± 16.5%
% CGM time 70-180 mg/dL (3.9-10.0 mmol/L) [4]: 80 ± 14.5%
CGM CV (%) [4]: 35.7 ± 3.5%
CGM SD [4]: 45 ± 14.6 mg/dL
Mean CGM glucose [4]: 139 ± 26 mg/dL
% CGM time 70-180 mg/dL (3.9-10.0 mmol/L) (daytime (7:00-23:00), n = 16, mean ± SD, listed as PLGS-EMPA): 80±14.5%
% CGM time <50 mg/dL (<2.8 mmol/L) [5]: 0(0-0.4) %
% CGM time <60 mg/dL (<3.3 mmol/L) [5]: 0.5(0.1-0.9) %
% CGM time <70 mg/dL (<3.9 mmol/L) [5]: 1.7(0.9-2.7) %
% CGM time >180 mg/dL (>10.0 mmol/L) [5]: 11.3(5.3-22.4) %
% CGM time >250 mg/dL (>13.9 mmol/L) [5]: 1.7(0.1-4.4) %
% CGM time >300 mg/dL (>16.7 mmol/L) [5]: 0.1(0-0.8) %
CGM HBGI [5]: 2.8(1.6-4.9)
CGM LBGI [5]: 0.7(0.6-0.9)
Daytime CGM CV - % (daytime, n = 17, mean ± SD): 30.4 ± 3.5%
Daytime CGM SD - (daytime, n = 17, mean ± SD): 44.9 ± 14.7 mg/dL
Difference: CGM HBGI (overall, CIQ-EMPA vs. BIQ-NOEMPA, BIQ-EMPA vs. CIQ-NOEMPA): −1.6
